Read-outs that look alike come from different tables or passages of the source.
How the values were obtained:
[1] = test system: B16 melanoma pulmonary metastases; experiment: Early B16 pulmonary metastasis model (Day 4 B16 Model), A-NK cell adoptive immunotherapy; type: in vivo, C57BL/6 mice; conditions: for significance of reduction in tumor burden (in words): compound B experiments (Table 2), three experiments; for effect on reduction of B16 melanoma pulmonary metastases mediated by A-NK cell adoptive immunotherapy: A-NK cells administered on day 4; for effect on anti-metastatic therapeutic effect of adoptively transferred A-NK cells: conclusion from the two examples
Procedure: The B16 F1 melanoma model system, herein after referred to as B16 melanoma model system, is recognized as being highly resistant to treatment with many standard clinically used anti-cancer agents. Therefore, it was selected for testing because it is known to be reflective of the clinical situation for advanced melanoma.
A-NK cells were prepared from mouse spleens. All procedures were carried out in a laminar flow hood using sterile reagents and equipment. Briefly, a single cell suspension was prepared by gently mashing the spleens through a 40 mesh stainless steel screen into complete media (CM) which consisted of RPMI 1640 supplemented with 10% heat-inactivated fetal bovine serum, 100 U/ml penicillin, 100 μg/ml streptomycin sulfate, 50 μg/ml gentamicin sulfate, 2 mM L-glutamine, 5×10^-5 M 2-mercaptoethanol and 1% MEM non-essential amino acids. The erythrocytes in the resulting suspension were lysed and the suspension was centrifuged and washed twice with CM. Splencytes were cultured in T-150 flasks at 1.5×10^8 per cells per flask (A flasks) in 50 ml of CM containing 6000 IU rhIL-2/ml. […] On day 6 the A-NK cells were harvested.
Referring to FIG. 1 which illustrated a flow diagram of procedures for tumor metastasis system, A-NK generation, therapy and analysis for arly B16 tumors used in the present invention. All experimental groups initially contained at least 7 animals. A-NK cell generation was started at day -2 and the culture was expanded on days 0 and 1 as described above.
Separately on day 0, B16 tumor cells (2×10^5 i.v.) were injected into C57BL/6 mice. On days 0, 1, 2, 3 and 4, a benzothiazole compound of formula I (100 mg/kg, p.o.) was administered to the mice. On day 3 some animals received cyclophosphamide (300 mg/kg., i.p.) which is a standard chemotherapeutic drug.
Control mice received injections of vehicle diluent (1% gum arabic). […] On day 10, the mice were sacrificed, their lungs removed and the rumor colonies counted.

[2] = test system: B16 melanoma pulmonary metastases; conditions: 216 h
Procedure: A-NK cells were prepared from mouse spleens. All procedures were carried out in a laminar flow hood using sterile reagents and equipment. Briefly, a single cell suspension was prepared by gently mashing the spleens through a 40 mesh stainless steel screen into complete media (CM) which consisted of RPMI 1640 supplemented with 10% heat-inactivated fetal bovine serum, 100 U/ml penicillin, 100 μg/ml streptomycin sulfate, 50 μg/ml gentamicin sulfate, 2 mM L-glutamine, 5×10^-5 M 2-mercaptoethanol and 1% MEM non-essential amino acids. The erythrocytes in the resulting suspension were lysed and the suspension was centrifuged and washed twice with CM. Splencytes were cultured in T-150 flasks at 1.5×10^8 per cells per flask (A flasks) in 50 ml of CM containing 6000 IU rhIL-2/ml. After 2 days the media and the non-adherent cells from the A flasks were transferred into new T-150 flasks (25 ml per flask--B flasks) and fresh CM+IL-2 (25 ml) was placed in the A flasks. The next day (day 3) the non-adherent cells and media from the B flasks were transferred to an equal number of T-150 C flasks and fresh CM+IL-2 was placed on the B flasks. […]
On day 8, 3-4×10^7 A-NK cells plus 120,000 IU of IL-2 were adaptively transferred into tumor-bearing mice. […] On day 9, the mice were sacrificed, their lungs removed and the tumor colonies counted.

[3] = in vivo; set-up: species or system mice; conditions: mouse, po, 100 mg/kg
Procedure: (§1) The compound B of the present invention has been tested for its pharmacokinetics and toxicity in mice. As shown in FIG. 3 peak levels of compound B occurred in the liver 1 h after p.o. administration of a single 100 mg/kg dose. […] Mice were dosed for 5 consecutive days with 0-300 mg/kg of compound B in 1% gum arabic (p.o.). Their weight was measured in 1 week intervals and at 4 weeks the animals were sacrificed and their organ weights measured.

[4] = Subacute toxicity study in mice; type: in vivo; conditions: 0-300 mg/kg p.o. for 5 consecutive days, in 1% gum arabic
Procedure: as §1

O=P1(N(CCCl)CCCl)NCCCO1 (centres unmarked) [Cyclophosphamide, cyclophosphamide, reference compound]
Number of Pulmonary Metastases (± standard deviation) ([1]; Table 1, experiment 1, given without compound A): 33 ± 25
Number of Pulmonary Metastases (± standard deviation) ([1]; Table 1, experiment 2, given without compound A): 18 ± 12
Number of Pulmonary Metastases (± standard deviation) ([1]; Table 1, experiment 3, given without compound A, cyclophosphamide *p < 0.05 vs. control): 81 ± 60
Number of Pulmonary Metastases (± standard deviation) ([1]; Table 2, experiment 1, given without compound B): 135 ± 55
Number of Pulmonary Metastases (± standard deviation) ([1]; Table 2, experiment 2, given without compound B): 156 ± 120
Number of Pulmonary Metastases (± standard deviation) ([1]; Table 2, experiment 3, given without compound B): 272 ± 110
significance of reduction in tumor burden (in words) [1]: neither A-NK cells alone or cyclophosphamide yielded a significant reduction in tumor burden

COc1cccc2sc(-c3ccc(C(C)(C)C)cc3)nc12 [Compound A, 4-Methoxy-2-(4-t-butylphenyl)benzothiazole]
reduction of tumor burden (average) [2]: 38%
effect on reduction of B16 melanoma pulmonary metastases mediated by A-NK cell adoptive immunotherapy [1]: enhanced the reduction
reduction of tumor burden (average) ([1]; A-NK cells on day 4, compound A in combination with A-NK cells): 64%
Number of Pulmonary Metastases (± standard deviation) ([1]; Table 1, experiment 1, Compound A + A-NK Cells (with IL-2), 100 mg/kg p.o. days 0-4, control 59 ± 41, *p < 0.05 vs. control): 24 ± 19
Number of Pulmonary Metastases (± standard deviation) ([1]; Table 1, experiment 2, Compound A + A-NK Cells (with IL-2), 100 mg/kg p.o. days 0-4, control 32 ± 22, *p < 0.05 vs. control): 13 ± 7
Number of Pulmonary Metastases (± standard deviation) ([1]; Table 1, experiment 3, Compound A + A-NK Cells (with IL-2), 100 mg/kg p.o. days 0-4, control 222 ± 74, **p < 0.02 vs. control): 58 ± 35
effect on anti-metastatic therapeutic effect of adoptively transferred A-NK cells [1]: augment the anti-metastatic therapeutic effect

COc1cccc2sc(-c3ccc(C(F)(F)F)cc3)nc12 [Compound B, 4-Methoxy-2-(4-trifluoromethylphenyl) benzothiazole]
Tmax [3]: 1 h
effect on reduction of B16 melanoma pulmonary metastases mediated by A-NK cell adoptive immunotherapy [1]: enhanced the reduction
Number of Pulmonary Metastases (± standard deviation) ([1]; Table 2, experiment 1, Compound B + A-NK Cells (with IL-2), 100 mg/kg p.o. days 0-4, control 125 ± 66, *p < 0.05 vs. control): 66 ± 39
Number of Pulmonary Metastases (± standard deviation) ([1]; Table 2, experiment 2, Compound B + A-NK Cells (with IL-2), 100 mg/kg p.o. days 0-4, control 187 ± 114, *p < 0.05 vs. control): 88 ± 49
Number of Pulmonary Metastases (± standard deviation) ([1]; Table 2, experiment 3, Compound B + A-NK Cells (with IL-2), 100 mg/kg p.o. days 0-4, control 199 ± 45, **p < 0.001 vs. control): 88 ± 60
significance of reduction in tumor burden (in words) [1]: Significant reduction in tumor burden
effect on anti-metastatic therapeutic effect of adoptively transferred A-NK cells [1]: augment the anti-metastatic therapeutic effect
organ weight change ([4]; at 4 weeks): no significant difference
body weight change ([4]; weekly weights to 4 weeks): no significant difference
